# Reference: ChEMBL document CHEMBL3808305, “Discovery of fused tricyclic core containing HCV NS5A inhibitors with pan-genotype activity” (Bioorg Med Chem Lett, 2016)
# Legend:
# Hepatitis C virus [1] = test: Antiviral activity against HCV genotype 1a assessed as decrease in HCV replicon RNA replication after 3 days in presence of 10% FBS by taqman assay based cell based replicon method; assay type: functional, organism-based, Hepacivirus hominis; conditions: subtype 1a, 72 h
# Hepatitis C virus [2] = test: Antiviral activity against HCV genotype 2a assessed as decrease in HCV replicon RNA replication after 3 days in presence of 10% FBS by taqman assay based cell based replicon method; assay type: functional, organism-based, Hepacivirus hominis; conditions: 72 h
# Hepatitis C virus [3] = test: Antiviral activity against HCV genotype 1b assessed as decrease in HCV replicon RNA replication after 3 days in presence of 10% FBS by taqman assay based cell based replicon method; assay type: functional, organism-based, Hepacivirus hominis; conditions: 72 h
# Hepatitis C virus [4] = test: Antiviral activity against HCV genotype 1b assessed as decrease in HCV replicon RNA replication after 3 days by taqman assay based cell based replicon method; assay type: functional, organism-based, Hepacivirus hominis; conditions: 72 h
# Hepatitis C virus [5] = test: Antiviral activity against HCV genotype 3a assessed as decrease in HCV replicon RNA replication after 3 days by taqman assay based cell based replicon method; assay type: functional, organism-based, Hepacivirus hominis; conditions: 72 h
# Hepatitis C virus [6] = test: Antiviral activity against HCV genotype 2a assessed as decrease in HCV replicon RNA replication after 3 days by taqman assay based cell based replicon method; assay type: functional, organism-based, Hepacivirus hominis; conditions: 72 h
# Hepatitis C virus [7] = test: Antiviral activity against HCV genotype 1a assessed as decrease in HCV replicon RNA replication after 3 days by taqman assay based cell based replicon method; assay type: functional, organism-based, Hepacivirus hominis; conditions: subtype 1a, 72 h
# Hepatitis C virus [8] = test: Antiviral activity against HCV genotype 1a expressing NS5A Y93H mutant assessed as decrease in HCV replicon RNA replication after 3 days by taqman assay based cell based replicon method; assay type: functional, organism-based, Hepacivirus hominis; conditions: subtype 1a, 72 h
# [9] = AUC in Sprague-Dawley rat at 5 mg/kg, po; assay type: ADME, organism-based; conditions: in vivo
# [10] = Clearance in Sprague-Dawley rat at 5 mg/kg, po or 2 mg/kg, iv; assay type: ADME, organism-based; conditions: in vivo
# [11] = Half life in Sprague-Dawley rat at 5 mg/kg, po or 2 mg/kg, iv; assay type: ADME, organism-based; conditions: in vivo
# [12] = Oral bioavailability in Sprague-Dawley rat at 5 mg/kg; assay type: ADME, organism-based; conditions: in vivo
# Hepatitis C virus [13] = test: Antiviral activity against HCV genotype 1a H77 expressing NS5A Y93H mutant infected in mouse HB1 cells assessed as decrease in HCV replicon RNA replication by taqman assay; assay type: functional, organism-based, Hepacivirus hominis; conditions: genotype 1a H77, HB1
# Hepatitis C virus [14] = test: Antiviral activity against HCV genotype 1b Con1 assessed as decrease in HCV replicon RNA replication by taqman assay based cell based replicon method; assay type: functional, organism-based, Hepacivirus hominis; conditions: isolate Con1
# Hepatitis C virus [15] = test: Antiviral activity against HCV genotype 1a H77 infected in mouse HB1 cells assessed as decrease in HCV replicon RNA replication after 3 days by taqman assay; assay type: functional, organism-based, Hepacivirus hominis; conditions: genotype 1a H77, HB1, 72 h
# Hepatitis C virus [16] = test: Antiviral activity against HCV genotype 2a JFH assessed as decrease in HCV replicon RNA replication by taqman assay based cell based replicon method; assay type: functional, organism-based, Hepacivirus hominis; conditions: subtype 2a JFH
# Hepatitis C virus [17] = test: Antiviral activity against HCV genotype 3a NC009824 assessed as decrease in HCV replicon RNA replication by taqman assay based cell based replicon method; assay type: functional, organism-based, Hepacivirus hominis
# [18] = Oral bioavailability in Sprague-Dawley rat at 10 mg/kg; assay type: ADME, organism-based; conditions: in vivo
# [19] = Clearance in Sprague-Dawley rat at 10 mg/kg, po or 2 mg/kg, iv; assay type: ADME, organism-based; conditions: in vivo
# [20] = Half life in Sprague-Dawley rat at 10 mg/kg, po or 2 mg/kg, iv; assay type: ADME, organism-based; conditions: in vivo
# [21] = AUC in Sprague-Dawley rat at 10 mg/kg, po; assay type: ADME, organism-based; conditions: in vivo
# Hepatitis C virus [22] = test: Antiviral activity against HCV genotype 3a assessed as decrease in HCV replicon RNA replication after 3 days in presence of 10% FBS by taqman assay based cell based replicon method; assay type: functional, organism-based, Hepacivirus hominis; conditions: 72 h
# Hepatitis C virus [23] = test: Antiviral activity against HCV genotype 1a expressing NS5A Y93H mutant assessed as decrease in HCV replicon RNA replication after 3 days in presence of 10% FBS by taqman assay based cell based replicon method; assay type: functional, organism-based, Hepacivirus hominis; conditions: subtype 1a, 72 h
SMILES,EC50 (Hepatitis C virus [4]),EC50 (Hepatitis C virus [5]),EC50 (Hepatitis C virus [6]),EC50 (Hepatitis C virus [7]),EC50 (Hepatitis C virus [8]),other results
COC(=O)N[C@H](C(=O)N1CCC[C@H]1c1ncc(-c2ccc3c(c2)C=Nc2ccc(-c4cnc([C@@H]5CCCN5C(=O)[C@@H](NC(=O)OC)C(C)C)[nH]4)cc2O3)[nH]1)C(C)C,,,,,,EC50 (Hepatitis C virus [1]): 220 nM; EC50 (Hepatitis C virus [2]): 55 nM; EC50 (Hepatitis C virus [3]): 0.06 nM
COC(=O)N[C@H](C(=O)N1CCC[C@H]1c1ncc(-c2ccc3c(c2)Oc2ccc(-c4cnc([C@@H]5CCCN5C(=O)[C@@H](NC(=O)OC)C(C)C)[nH]4)cc2S3(=O)=O)[nH]1)C(C)C,0.06 nM,16 nM,0.8 nM,> 1 nM,2380 nM,
COC(=O)N[C@H](C(=O)N1CCC[C@H]1c1ncc(-c2ccc3c(c2)Oc2ccc(-c4cnc([C@@H]5CCCN5C(=O)[C@@H](NC(=O)OC)C(C)C)[nH]4)cc2O3)[nH]1)C(C)C,0.009 nM,,0.01 nM,0.01 nM,16 nM,AUC [9]: 4.5 µM·h; clearance [10]: 6.4 mL/min/kg; half-life [11]: 1.4 h; bioavailability [12]: 26%
COC(=O)N[C@H](C(=O)N1CCC[C@H]1c1ncc(-c2ccc3c(c2)NC(=O)c2ccc(-c4cnc([C@@H]5CCCN5C(=O)[C@@H](NC(=O)OC)C(C)C)[nH]4)cc2O3)[nH]1)C(C)C,,,,,,EC50 (Hepatitis C virus [1]): 145 nM; EC50 (Hepatitis C virus [2]): 310 nM; EC50 (Hepatitis C virus [3]): 0.2 nM
COC(=O)N[C@H](C(=O)N1CCC[C@H]1c1ncc(-c2ccc3c(c2)C(=O)c2ccc(-c4cnc([C@@H]5CCCN5C(=O)[C@@H](NC(=O)OC)C(C)C)[nH]4)cc2C3=O)[nH]1)C(C)C,0.007 nM,,0.7 nM,0.09 nM,35 nM,
COC(=O)N[C@H](C(=O)N1CCC[C@H]1c1nc(-c2ccc3c(c2)O[C@@H](c2ccccc2)n2c-3cc3cc(-c4c[nH]c([C@@H]5CCCN5C(=O)[C@@H](NC(=O)OC)C(C)C)n4)ccc32)c[nH]1)C(C)C [ELBASVIR],,,,,,EC50 (Hepatitis C virus [13]): 2 nM; EC50 (Hepatitis C virus [14]): 0.003 nM; EC50 (Hepatitis C virus [15]): 0.004 nM; EC50 (Hepatitis C virus [16]): 0.003 nM; EC50 (Hepatitis C virus [17]): 0.02 nM
COC(=O)N[C@H](C(=O)N1CCC[C@H]1c1ncc(-c2ccc3c(c2)Oc2ccc(-c4cnc([C@@H]5CCCN5C(=O)[C@@H](NC(=O)OC)C(C)C)[nH]4)cc2C3C)[nH]1)C(C)C (stereo partly drawn),0.009 nM,0.08 nM,0.004 nM,0.05 nM,,
CCC1c2ccc(-c3cnc([C@@H]4CCCN4C(=O)[C@@H](NC(=O)OC)C(C)C)[nH]3)cc2Oc2ccc(-c3cnc([C@@H]4CCCN4C(=O)[C@@H](NC(=O)OC)C(C)C)[nH]3)cc21 (stereo partly drawn),0.004 nM,0.07 nM,0.005 nM,0.02 nM,24 nM,
C/C=C1/c2ccc(-c3cnc([C@@H]4CCCN4C(=O)[C@@H](NC(=O)OC)C(C)C)[nH]3)cc2Oc2ccc(-c3cnc([C@@H]4CCCN4C(=O)[C@@H](NC(=O)OC)C(C)C)[nH]3)cc21,0.007 nM,0.4 nM,0.03 nM,0.06 nM,9 nM,
COC(=O)N[C@H](C(=O)N1CCC[C@H]1c1ncc(-c2ccc3c(c2)C=Nc2cc(-c4cnc([C@@H]5CCCN5C(=O)[C@@H](NC(=O)OC)C(C)C)[nH]4)ccc2O3)[nH]1)C(C)C,,,,,,EC50 (Hepatitis C virus [1]): 40 nM; EC50 (Hepatitis C virus [2]): 55 nM; EC50 (Hepatitis C virus [3]): 0.5 nM
COC(=O)N[C@H](C(=O)N1CCC[C@H]1c1ncc(-c2ccc3c(c2)Oc2ccc(-c4cnc([C@@H]5CCCN5C(=O)[C@@H](NC(=O)OC)C(C)C)[nH]4)cc2N3C)[nH]1)C(C)C,0.007 nM,0.3 nM,0.07 nM,0.09 nM,70 nM,bioavailability [18]: 69%; clearance [19]: 32 mL/min/kg; half-life [20]: 1.2 h; AUC [21]: 2.8 µM·h
CCCC/C=C1/c2ccc(-c3cnc([C@@H]4CCCN4C(=O)[C@@H](NC(=O)OC)C(C)C)[nH]3)cc2Oc2ccc(-c3cnc([C@@H]4CCCN4C(=O)[C@@H](NC(=O)OC)C(C)C)[nH]3)cc21,0.006 nM,0.4 nM,0.05 nM,> 0.1 nM,260 nM,
COC(=O)N[C@H](C(=O)N1CCC[C@H]1c1ncc(-c2ccc3c(c2)Oc2ccc(-c4cnc([C@@H]5CCCN5C(=O)[C@@H](NC(=O)OC)C(C)C)[nH]4)cc2C3C2CC2)[nH]1)C(C)C (stereo partly drawn),,,,,,EC50 (Hepatitis C virus [1]): 0.03 nM; EC50 (Hepatitis C virus [2]): 0.004 nM; EC50 (Hepatitis C virus [22]): 0.2 nM; EC50 (Hepatitis C virus [23]): 46 nM; EC50 (Hepatitis C virus [3]): 0.004 nM
COC(=O)N[C@H](C(=O)N1CCC[C@H]1c1ncc(-c2ccc3c(c2)NC(=O)c2cc(-c4cnc([C@@H]5CCCN5C(=O)[C@@H](NC(=O)OC)C(C)C)[nH]4)ccc2O3)[nH]1)C(C)C,,,,,,EC50 (Hepatitis C virus [1]): 950 nM; EC50 (Hepatitis C virus [2]): > 1000 nM; EC50 (Hepatitis C virus [3]): 40 nM
COC(=O)N[C@H](C(=O)N1CCC[C@H]1c1ncc(-c2ccc3c(Cl)c4cc(-c5cnc([C@@H]6CCCN6C(=O)[C@@H](NC(=O)OC)C(C)C)[nH]5)ccc4cc3c2)[nH]1)C(C)C,0.003 nM,0.6 nM,0.01 nM,0.05 nM,66 nM,
COC(=O)N[C@H](C(=O)N1CCC[C@H]1c1ncc(-c2ccc3c(=O)c4cc(-c5cnc([C@@H]6CCCN6C(=O)[C@@H](NC(=O)OC)C(C)C)[nH]5)ccc4oc3c2)[nH]1)C(C)C,0.002 nM,,0.1 nM,0.01 nM,1730 nM,
COC(=O)N[C@H](C(=O)N1CCC[C@H]1c1ncc(-c2ccc3cc4cc(-c5cnc([C@@H]6CCCN6C(=O)[C@@H](NC(=O)OC)C(C)C)[nH]5)ccc4cc3c2)[nH]1)C(C)C,0.001 nM,0.06 nM,0.005 nM,0.006 nM,87 nM,bioavailability [18]: 46%; clearance [19]: 7.7 mL/min/kg; half-life [20]: 3 h; AUC [21]: 13 µM·h
COC(=O)N[C@H](C(=O)N1CCC[C@H]1c1ncc(-c2ccc3nc4cc(-c5cnc([C@@H]6CCCN6C(=O)[C@@H](NC(=O)OC)C(C)C)[nH]5)ccc4cc3c2)[nH]1)C(C)C,0.01 nM,,0.04 nM,0.05 nM,1050 nM,
COC(=O)N[C@H](C(=O)N1CCC[C@H]1c1ncc(-c2ccc3c(c2)Oc2ccc(-c4cnc([C@@H]5CCCN5C(=O)[C@@H](NC(=O)OC)C(C)C)[nH]4)cc2C3(C)C)[nH]1)C(C)C,0.005 nM,0.3 nM,< 0.02 nM,0.02 nM,130 nM,bioavailability [18]: 39%; clearance [19]: 19 mL/min/kg; half-life [20]: 1.6 h; AUC [21]: 2.3 µM·h
COC(=O)N[C@H](C(=O)N1CCC[C@H]1c1ncc(-c2ccc3c(C#N)c4cc(-c5cnc([C@@H]6CCCN6C(=O)[C@@H](NC(=O)OC)C(C)C)[nH]5)ccc4nc3c2)[nH]1)C(C)C,,,,,,EC50 (Hepatitis C virus [1]): 0.3 nM; EC50 (Hepatitis C virus [2]): 1 nM; EC50 (Hepatitis C virus [3]): 0.01 nM
COC(=O)N[C@H](C(=O)N1CCC[C@H]1c1ncc(-c2ccc3c(c2)Oc2ccc(-c4cnc([C@@H]5CCCN5C(=O)[C@@H](NC(=O)OC)C(C)C)[nH]4)cc2N3c2ccccc2)[nH]1)C(C)C,,,,,,EC50 (Hepatitis C virus [1]): 5 nM; EC50 (Hepatitis C virus [2]): 3 nM; EC50 (Hepatitis C virus [3]): 0.008 nM
COC(=O)N[C@H](C(=O)N1CCC[C@H]1c1ncc(-c2ccc3nc4cc(-c5cnc([C@@H]6CCCN6C(=O)[C@@H](NC(=O)OC)C(C)C)[nH]5)ccc4nc3c2)[nH]1)C(C)C,0.06 nM,0.2 nM,0.1 nM,0.06 nM,61 nM,
COC(=O)N[C@H](C(=O)N1CCC[C@H]1c1ncc(-c2ccc3c(c2)Oc2ccc(-c4cnc([C@@H]5CCCN5C(=O)[C@@H](NC(=O)OC)C(C)C)[nH]4)cc2S3)[nH]1)C(C)C,0.002 nM,0.3 nM,0.06 nM,0.04 nM,21 nM,AUC [9]: 1.1 µM·h; clearance [10]: 15 mL/min/kg; half-life [11]: 1.3 h; bioavailability [12]: 25%
COC(=O)N[C@H](C(=O)N1CCC[C@H]1c1ncc(-c2ccc3c(C)c4cc(-c5cnc([C@@H]6CCCN6C(=O)[C@@H](NC(=O)OC)C(C)C)[nH]5)ccc4cc3c2)[nH]1)C(C)C,0.005 nM,0.5 nM,0.005 nM,0.02 nM,42 nM,
